Key:
IDO1 [1] = biological target: T1, IDO1 (Homo sapiens (Human), UniProt P14902); test: IDO1 HEK293 Cellular Assay; type: cell-based; details: HEK293 cells transfected with Flag-IDO1, 200 μM L-Tryptophan, 20-24 hours; for IC50: read-out: HEK293 cell, pIC50 (converted)
Protocol: IDO1 HEK293 Cellular Assay
Compounds to be tested were serially diluted in ten 3-fold steps in DMSO starting from 10 mM DMSO stocks. Compound dilutions or DMSO alone were then dispensed from the dilution plate into a Greiner black 384-well assay plate (catalog #781086) using an Echo 550 acoustic liquid handler (Labcyte).
HEK293 cell pellets were resuspended to 5×10^5 cells/mL in complete HEK293 culture media (89% DMEM, 10% FBS, 1% penicilllin/streptomycin). Suspended cells (2 mL) were dispensed into each well of a 6-well Corning plate (Catalog#3516). Cells were allowed to attach and were incubated for 20 hours at 37 degrees Celsius in a 5% CO2 incubator. Flag-IDO1 vector (Genscript True ORF Gold, 2 ug) in 150 uL of Opti-MEM medium was added to each well of a Corning 24 well plate (Cat#3527) and incubated for 5 minutes at room temperature. To each well of the 24-well plate was added 150 μL Lipofectamine 2000 (Gibco) and the plate incubated at room temperature for 20-30 minutes. To each well of attached cells in the 6-well plate, 250 μL of the transfection mix from the 24well plate was gently added to each well and IDO1 protein was allowed to express for 24-30 hours at 37 degrees Celsius in a 5% CO2 incubator.
Media was removed from the cells which were then washed with 2 mL Dulbecco's phosphate-buffered saline (DPBS). After removal of DPBS, 0.5 mL of TrypLE (Gibco) was added and incubated at 5 minutes until cells lift from the surface of the wells. Complete HEK293 culture media (4 mL) was added to each well and cells were collected and pooled into a conical tube. Cells were pelleted at 200×g for 5 minutes and resuspended in an equal volume of complete DMEM medium. Cells were diluted to 4×10^5 cells per mL in complete HEK293 media. L-Tryptophan was added to added to give a final concentraiton of 200 μM. The diluted transfected cells (50 μL) or nontransfected cells (50 μL) were dispensed into wells of Greiner black 384-well assay plates (catalog #781086) containing previously diluted compounds. The plate is briefly mixed and centrifuged at 200×g for 10 seconds to collect cells at the bottom of the plate. Plates were covered and incubated for 20-24 hours at 37 degrees C. in a 5% CO2 incubator. Afterwards 10 μL of 0.5 M methyl isonipecotate in dimethyl sulfoxide was added to each well, mixed, sealed, and centrifuged at 500 rpm for 10 seconds. Plates were incubated at 37 degrees in a 5% CO2 incubator overnight to develop fluoresence. The plates are allowed to cool and then centrifuged for 1 minute at 1000×g. The resulting fluoresence was measured in an Envision plate reader (Perkin Elmer) with a 400/25 nm excitation filter and an 510/20 nm emission filter.
The fluoresence intensity of each well was corrected for the background observed in wells with untransfected cells and was expressed as a fraction of the intensity observed in wells of IDO1 transfected cells and DMSO only. Potencies were calculated by linear least squares fit to the four parameter logistic IC50 equation.

IDO1 [2] = biological target: T1, IDO1; test: IDO1 Enzyme Assay; type: biochemical; details: HIS-tagged recombinant IDO1, tryptophan substrate, fluorescence readout; for IC50: read-out: IDO1 Enzyme, pIC50 (converted)
Protocol: Compounds to be tested were serially diluted in ten 3-fold steps in DMSO starting from 10 mM DMSO stocks. Compound dilutions or DMSO alone were then dispensed from the dilution plate into a Greiner black 384-well assay plate (catalog #781086) using an Echo 555 acoustic liquid handler (Labcyte).
HIS-tagged IDO1 protein was recombinantly expressed in Escherichia coli using ZYP5052 autoinduction media supplemented with 500 μM delta aminolevulinic acid for 48 hours at 16 degrees Celsius. IDO1 protein was purified using Ni^2+-affinity resin and size exclusion chromatography. Purified protein was then diluted in assay buffer (50 mM Tris pH 7.0, 1% glycerol, 20 uM methylene blue, 0.05% Tween-20, 20 mM sodium ascorbate, 100 units/mL catalase to obtain a final IDOL concentration of 40 nM. IDOL solution ([…]) or buffer alone ([…]) were dispensed to wells of the assay plate using a BioRAPTR liquid dispenser (Beckman Coulter). Assay plates containing compound and IDO1 enzyme were incubated at room temperature for 30 minutes. Afterwards, 10 μL of 400 μM tryptophan in assay buffer were added to each well of the assay plate using a BioRAPTR liquid dispenser. Plates were incubated at room temperature for 60 minutes and reactions were quenched by addition of 10 μL of 0.5 M methyl isonipecotate in dimethyl sulfoxide. Plates were sealed and incubated at 37 degrees Celsius for 4 hours or 50 degrees Celsius for 2 hours. The plates are allowed to cool and then centrifuged for 1 minute at 1000×g. The resulting fluoresence was measured in an Envision plate reader (Perkin Elmer) with a 400/25 nm excitation filter and an 510/20 nm emission filter.
Potencies were calculated by linear least squares fit to the four parameter logistic IC50 equation.

IDO [3] = biological target: T2, IDO (Homo sapiens (Human), UniProt P14902); test: SKOV3 kynurenine cell-based assay (IDO induced by IFN-γ); details: SKOV3 human ovarian adenocarcinoma cells, 500 ng/ml IFN-γ, 500 μM L-tryptophan, 48 hours
Protocol: (§1) Exemplary compounds of the invention were prepared, and tested to determine their effect as TDO and/or IDO inhibitors. Two different assays were employed: 1. a cell-based assay for detecting the effect of test compounds on kynurenine production in two different cancer cell types. This assay utilised cancer cells which expressed either TDO or IDO and as such was used as a means of testing compound activity at these two enzymes in a cell-based context. 2. a TDO and IDO biochemical coupled assay which utilised recombinantly produced and purified TDO and IDO enzymes in combination with the enzyme formamidase. This coupled enzyme system allowed conversion of N-formylkynurenine produced by TDO or IDO activity to kynurenine which was then quantified by fluorescence following addition of Erhlich's Reagent The protocols for these are set out below.
(§2) Cell Based Assay for Detection of Kynurenine Produced by TDO and/or IDO
(§3) A172 (human glioblastoma) and SKOV3 (human ovarian adenocarcinoma) cells were seeded in a 96 well plate at 30,000 or 40,000 cells per well respectively in phenol red-free RPMI supplemented with 10% FCS, 2 mM L-glutamine and 500 μM L-tryptophan. IDO expression was induced in the SKOV3 cells by the addition of 500 ng/ml IFN-γ. Cells were incubated at 37° C. with or without the addition of test compound. After 48 hours, the cells were removed by centrifugation and Erhlich's reagent was added to the supernatant. The Erhlich's reagent was incubated for 5 minutes before the absorbance was read at 490 nm.

IDO [4] = biological target: T2, IDO; test: hIDO biochemical coupled assay; details: 45 μM L-tryptophan, 17 minutes at room temperature
Protocol: as §1
(§4) TDO and IDO Biochemical Coupled Assay
(§5) Recombinant human IDO or TDO was incubated in 50 mM KPO4 (pH 7.0), 0.5 mM EGTA, 0.5 mM EDTA, 0.05% Triton™ X100, 20 mM ascorbate, 10 μM methylene blue, 500 U/ml catalase, 50 μg/ml KynB (kynurenine formamidase). TDO assays were carried out in the presence of 330 μM L-tryptophan, while IDO assays had the addition of 45 μM L-tryptophan. After incubation for 17 minutes at room temperature the reactions were stopped by the addition of Erhlich's reagent and incubated at room temperature for 5 minutes before the fluorescence was read (Ex 475, Em530).

TDO [5] = biological target: T3, TDO (Homo sapiens (Human), UniProt P48775); test: A172 kynurenine cell-based assay; details: A172 human glioblastoma cells, 500 μM L-tryptophan, 48 hours
Protocol: as §1, §2, §3

TDO [6] = biological target: T3, TDO; test: hTDO biochemical coupled assay; details: 330 μM L-tryptophan, 17 minutes at room temperature
Protocol: as §1, §4, §5

T2 sequence (P14902 whole entry): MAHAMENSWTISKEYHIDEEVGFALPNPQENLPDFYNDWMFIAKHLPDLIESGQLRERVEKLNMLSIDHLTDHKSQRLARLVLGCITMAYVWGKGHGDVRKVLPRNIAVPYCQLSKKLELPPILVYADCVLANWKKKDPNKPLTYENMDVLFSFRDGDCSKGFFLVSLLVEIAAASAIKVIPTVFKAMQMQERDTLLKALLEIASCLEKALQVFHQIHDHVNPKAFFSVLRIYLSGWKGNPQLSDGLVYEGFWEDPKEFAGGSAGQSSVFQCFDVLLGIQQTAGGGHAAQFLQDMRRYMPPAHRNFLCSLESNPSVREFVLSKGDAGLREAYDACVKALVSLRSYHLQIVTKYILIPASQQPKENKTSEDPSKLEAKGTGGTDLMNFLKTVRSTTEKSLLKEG
T1 sequence (P14902 whole entry): as above
T3 sequence (P48775 whole entry): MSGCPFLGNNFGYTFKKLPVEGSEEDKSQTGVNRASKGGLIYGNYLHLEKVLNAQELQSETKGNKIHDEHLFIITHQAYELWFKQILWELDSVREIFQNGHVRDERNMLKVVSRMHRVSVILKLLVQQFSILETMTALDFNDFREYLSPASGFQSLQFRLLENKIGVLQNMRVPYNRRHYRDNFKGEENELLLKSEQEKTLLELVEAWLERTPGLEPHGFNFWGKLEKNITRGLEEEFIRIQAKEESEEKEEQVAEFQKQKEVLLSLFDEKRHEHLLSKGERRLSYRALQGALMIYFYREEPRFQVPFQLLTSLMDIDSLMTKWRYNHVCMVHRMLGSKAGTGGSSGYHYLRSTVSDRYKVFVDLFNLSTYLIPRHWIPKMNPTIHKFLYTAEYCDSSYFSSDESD

| SMILES | IC50 (IDO1 [1]) | IC50 (IDO1 [2]) | SKOV3 Kynurenine cell based assay, pIC50 (IDO [3]) | A172 Kynurenine cell based assay, pIC50 (TDO [5]) | also measured |
| --- | --- | --- | --- | --- | --- |
| Cn1c(N)c(N2CCN(c3cc(C(F)(F)F)cc4cncn34)CC2)c(=O)n(C)c1=O [Compound 1037, 6-amino-1,3-dimethyl-5-{4-[7-(trifluoromethyl)imidazo[1,5-a]pyridin-5-yl]piperazin-1-yl}pyrimidine-2,4(1H,3H)-dione] | 3980 nM | 794 nM |  |  |  |
| CS(=O)(=O)c1ccc(-c2cc(C(F)(F)F)cc3cncn23)cc1 [Compound 1015, 5-(4-(methylsulfonyl)phenyl)-7-(trifluoromethyl)imidazo[1,5-a]pyridine] |  |  |  |  | IC50 (IDO [3]; read-out: SKOV3 Kynurenine cell based assay, pIC50 (converted)): 32400 to 100000 nM; IC50 (IDO [4]; read-out: hIDO biochemical assay, pIC50 (converted)): 3240 to 31600 nM; IC50 (TDO [5]; read-out: A172 Kynurenine cell based assay, pIC50 (converted)): 3240 to 31600 nM; IC50 (TDO [6]; read-out: hTDO biochemical assay, pIC50 (converted)): 32400 to 100000 nM |
| CC(=O)N1CCN(c2cc(C(F)(F)F)cc3cncn23)CC1 [Compound 1018] |  |  | + (+ = pIC50 4.00-4.49) | ++ (++ = pIC50 4.50-5.49) | hIDO biochemical assay, pIC50 (IDO [4]): ++ (++ = pIC50 4.50-5.49); hTDO biochemical assay, pIC50 (TDO [6]): ++ (++ = pIC50 4.50-5.49) |
| O=C(O)N1CCC(c2cc(C(F)(F)F)cc3cncn23)CC1 [Compound 1020] |  |  | +/− (+/− = pIC50 <4.00) | + (+ = pIC50 4.00-4.49) | hIDO biochemical assay, pIC50 (IDO [4]): + (+ = pIC50 4.00-4.49); hTDO biochemical assay, pIC50 (TDO [6]): ++ (++ = pIC50 4.50-5.49) |

Further lines, with some results ahead:

| IC50 (IDO1 [1]) | IC50 (IDO1 [2]) | SKOV3 Kynurenine cell based assay, pIC50 (IDO [3]) | A172 Kynurenine cell based assay, pIC50 (TDO [5]) | SMILES | also measured |
| --- | --- | --- | --- | --- | --- |
| 501 nM | 251 nM |  |  | Cc1noc(C2CCN(c3cc(C(F)(F)F)cc4cncn34)CC2)c1C(N)=O [Compound 1035, 3-methyl-5-{1-[7-(trifluoromethyl)imidazo[1,5-a]pyridin-5-yl]piperidin-4-yl}isoxazole-4-carboxamide] |  |
| 2510 nM | 398 nM |  |  | CNC(=O)c1c(C)noc1C1CCN(c2cc(C(F)(F)F)cc3cncn23)CC1 [Compound 1036, N,3-dimethyl-5-{1-[7-(trifluoromethyl)imidazo[1,5-a]pyridin-5-yl]piperidin-4-yl}isoxazole-4-carboxamide] |  |
| 794 nM | 1000 nM |  |  | FC(F)(F)c1cc(N2CCC(n3cnnn3)CC2)n2cncc2c1 [Compound 1038, 5-[4-(1H-tetrazol-1-yl)piperidin-1-yl]-7-(trifluoromethyl)imidazo[1,5-a]pyridine] |  |
|  |  | +++ (+++ = pIC50 ≥5.50) | +++ (+++ = pIC50 ≥5.50) | CC1(C)CN(c2cc(Br)cc3cncn23)CCN1S(C)(=O)=O [Compound 1021] | HEK293 cell, pIC50 (IDO1 [1]): 6.7; IDO1 Enzyme, pIC50 (IDO1 [2]): 6.8 |
